The values below come from US8440442B2, “Method of assaying 5-FU” (Myriad Genetics, Inc, priority 2009, dated 2013).

For the test, the target named is T1, dihydropyrimidine dehydrogenase (DPD) (Homo sapiens, UniProt Q12882).
T1 construct: from tissue; host or cells: donor whole blood (K2EDTA), plasma separated from it, and WBC/buffy coat
T1 sequence (Q12882 4-1025): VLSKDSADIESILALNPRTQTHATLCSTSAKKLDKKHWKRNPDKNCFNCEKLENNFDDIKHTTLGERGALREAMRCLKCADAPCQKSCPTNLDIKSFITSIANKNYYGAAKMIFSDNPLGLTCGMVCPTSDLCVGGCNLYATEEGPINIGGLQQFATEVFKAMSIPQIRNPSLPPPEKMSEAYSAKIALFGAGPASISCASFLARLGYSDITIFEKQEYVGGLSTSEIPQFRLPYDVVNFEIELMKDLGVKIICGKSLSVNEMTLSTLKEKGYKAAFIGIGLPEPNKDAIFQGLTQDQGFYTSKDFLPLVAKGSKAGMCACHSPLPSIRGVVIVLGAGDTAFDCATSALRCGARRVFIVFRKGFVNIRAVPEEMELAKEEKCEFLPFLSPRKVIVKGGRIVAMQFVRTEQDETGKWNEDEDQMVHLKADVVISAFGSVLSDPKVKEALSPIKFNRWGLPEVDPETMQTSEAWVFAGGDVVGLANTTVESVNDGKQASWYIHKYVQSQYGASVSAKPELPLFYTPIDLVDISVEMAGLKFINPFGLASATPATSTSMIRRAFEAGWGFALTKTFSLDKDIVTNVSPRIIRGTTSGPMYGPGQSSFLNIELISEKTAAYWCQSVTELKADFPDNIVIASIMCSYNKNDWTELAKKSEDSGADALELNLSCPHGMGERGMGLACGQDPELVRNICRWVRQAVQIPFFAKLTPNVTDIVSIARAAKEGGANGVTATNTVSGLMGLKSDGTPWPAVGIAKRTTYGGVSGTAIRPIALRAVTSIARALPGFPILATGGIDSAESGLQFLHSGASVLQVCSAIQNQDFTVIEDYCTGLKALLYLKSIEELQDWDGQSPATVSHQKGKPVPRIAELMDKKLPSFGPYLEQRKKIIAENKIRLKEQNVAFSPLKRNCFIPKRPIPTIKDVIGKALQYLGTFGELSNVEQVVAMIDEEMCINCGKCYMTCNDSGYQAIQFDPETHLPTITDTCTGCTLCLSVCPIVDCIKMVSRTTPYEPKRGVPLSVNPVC
Briefly: Amount of DPD inactivator needed: gimeracil in 5-FU spiked blood, plasma with or without added WBC/buffy coat. The settings on record: for Average 5-FU Measurement Initial / Average 5-FU Measurement 24-hour: in ng/mL; for Average 5-FU Measurement 24-hour: plasma 24 hours at room temperature. Type of test: biochemical. As for the experimental part:
In the following illustrative examples, 5-FU was measured using an antibody-based agglutination assay on the Olympus AU680 Analyzer using an antibody disclosed in U.S. Pat. No. 7,205,116. Specifically, the concentration of 5-FU in a sample is determined based on the absorbance of a sample, which is determined by the amount of aggregation by the nanoparticles. The system requires two reagents, which when mixed in the absence of free 5-FU will form large aggregates of nanoparticles and scatter light to result in a higher absorption value. In the presence of free 5-FU, the agglutination reaction becomes somewhat inhibited and scattering of light is less, causing a lower absorption value. The instrument is calibrated twice monthly, and a curve is generated (Absorbance vs. 5-FU concentration). Absorbance values from individual samples are compared against this curve to determine concentration.
Generally in the agglutination assay, 95 μl of a buffer containing 5-FU-labeled amino-dextran is pipetted to a cuvette, followed by 7 μL of a filtered plasma sample. The sample and reagent are mixed and then incubated for about 3.5 minutes. 95 μl of 5-FU antibody-conjugated nanoparticles is pipetted into the cuvette and mixed. The complete reaction incubates for about 6.2 minutes. A series of 27 measurements at 600 nm are taken at regular intervals by the AU680 analyzer throughout this process, and 5-FU concentration is calculated using the measurements from two specific time points.
Four tubes of blood (spray-on K2EDTA tubes, 10 mL) was drawn from each of six donors, and gently inverted several times to mix anti-coagulant. All donor blood was pooled into one large tube, and two equal aliquots of that pooled blood were transferred to two new tubes. The remaining blood was used to isolate white blood cell (WBC)/buffy coat. WBC/buffy coat was isolated by centrifuging the remaining blood tubes, extracting and pooling the WBC layer from each tube, centrifuging again to enrich the WBC/buffy coat, and separating the enriched WBC/buffy coat layer into a clean tube. One volume of blood was spiked with a calculated volume of stock 5-FU (at 200 ng/μL) for a final concentration of 500 ng/mL, and the other volume of blood was spiked with a calculated volume of stock 5-FU (at 200 ng/μL) for a final concentration of 1500 ng/mL. Three sets of eight tubes each were prepared to aliquot the spiked blood into. In addition, a negative control was used that was inoculated with 300 μL of 30% methanol/water instead of gimeracil. To four of the eight tubes per set, the low concentration 5-FU blood was aliquotted, 6 mL each tube. The high concentration 5-FU blood was aliquotted to the remaining four tubes per set, as well as to the negative control tube, 6 mL each. The eight tubes were then inoculated with either 300 μL of 0.12 mg/mL gimeracil in 30% MeOH/water or 300 μL of 0.04 mg/mL gimeracil. Blood tubes were inverted to mix the gimeracil, and then sat at room temperature for 45 minutes. Blood tubes were centrifuged at 2000×g for 10 minutes and room temperature. Plasma was aspirated immediately after centrifugation and dispensed into clean cryovials. The WBC/buffy coat was added to designated tubes of plasma, and vortexed to evenly mix. Plasma samples were run under standard conditions for the AU680 analyzer (200 μL, spin for 15 minutes at 12,500 rpm). Measurements were taken immediately after adding WBC/buffy coat (“initial”), as well as 24 hours (“24-hour”), after addition of WBC/buffy coat. For the 24-hour measurement, plasma was stored at room temperature for the first 24 hours of the experiment to simulate overnight ambient shipping.

Setting [1] is: target 5-FU 500 ng/mL, gimeracil 2000 ng/mL, NO WBC.
[2] abbreviates: target 5-FU 500 ng/mL, gimeracil 2000 ng/mL, w/WBC.
The mark [3] stands for this setting: target 5-FU 500 ng/mL, gimeracil 6000 ng/mL, NO WBC.
[4] abbreviates: target 5-FU 500 ng/mL, gimeracil 6000 ng/mL, w/WBC.
The mark [5] stands for this setting: target 5-FU 1500 ng/mL, gimeracil 2000 ng/mL, NO WBC.
The mark [6] stands for this setting: target 5-FU 1500 ng/mL, gimeracil 2000 ng/mL, w/WBC.
The mark [7] stands for this setting: target 5-FU 1500 ng/mL, gimeracil 6000 ng/mL, NO WBC.
Setting [8] is: target 5-FU 1500 ng/mL, gimeracil 6000 ng/mL, w/WBC.

Turning to `Oc1cc(O)c(Cl)cn1` [Gimeracil, 5-chloro-2,4-dihydroxypyridine], the “% change (Initial vs. 24-hour)” value under setting [1] was −2.9%; the “% change (Initial vs. 24-hour)” value under setting [2] is recorded as 2.7%; the “% change (Initial vs. 24-hour)” value under setting [3] is 1.7%; the “% change (Initial vs. 24-hour)” value under setting [4] came out at 1.0%; the “% change (Initial vs. 24-hour)” value under setting [5] is recorded as −0.5%; the “% change (Initial vs. 24-hour)” value under setting [6] was determined as 2.9%. Also, the “% change (Initial vs. 24-hour)” value is, setting by setting: under setting [7], 2.0%; under setting [8], −0.9%. Moreover, the “Average 5-FU Measurement Initial” value (target 5-FU 500 ng/mL, gimeracil 2000 ng/mL, NO WBC, initial) was found to be 488.3; the “Average 5-FU Measurement Initial” value (target 5-FU 500 ng/mL, gimeracil 2000 ng/mL, w/WBC, immediately after adding WBC/buffy coat) is listed as 465.8; the “Average 5-FU Measurement Initial” value (target 5-FU 500 ng/mL, gimeracil 6000 ng/mL, NO WBC, initial) is on record as 479.1; the “Average 5-FU Measurement Initial” value (target 5-FU 500 ng/mL, gimeracil 6000 ng/mL, w/WBC, initial) worked out at 473.7; the “Average 5-FU Measurement Initial” value (target 5-FU 1500 ng/mL, gimeracil 2000 ng/mL, NO WBC, initial) was found to be 1434.9; the “Average 5-FU Measurement Initial” value (target 5-FU 1500 ng/mL, gimeracil 2000 ng/mL, w/WBC, initial) is listed as 1377.7. In addition, the “Average 5-FU Measurement Initial” value reads like this: (target 5-FU 1500 ng/mL, gimeracil 6000 ng/mL, NO WBC, initial) 1430.3; (target 5-FU 1500 ng/mL, gimeracil 6000 ng/mL, w/WBC, initial) 1402.9. The “Average 5-FU Measurement 24-hour” value under setting [1] turned out to be 474.3; the “Average 5-FU Measurement 24-hour” value under setting [2] came to 478.6; the “Average 5-FU Measurement 24-hour” value under setting [3] was 487.3; the “Average 5-FU Measurement 24-hour” value under setting [4] amounted to 478.6; the “Average 5-FU Measurement 24-hour” value under setting [5] is recorded as 1427.3; the “Average 5-FU Measurement 24-hour” value under setting [6] is 1418.1. The “Average 5-FU Measurement 24-hour” value by setting is: under setting [7], 1458.3; under setting [8], 1390.1.
